ChEMBL document CHEMBL1201862, “PubChem BioAssay data set” (2004)
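The compound was tested at five concentrations on cells cultured in 96-well plates, with a 48-hour exposure period. Here, GI50 denotes the concentration required for 50% inhibition of growth.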 The source made the active and inactive calls. Rule as the data show it: active = GI50 up to about 1.1 µM and inactive = higher.

Tests used:
Test in all cases: NCI-60 cell line screen, 48 h
MDA-MB-435 = tested on: MDA-MB-435
COLO 205 = tested on: COLO 205
DU-145 = tested on: DU-145
A549 = tested on: A549
OVCAR-4 = tested on: OVCAR-4
M14 = tested on: M14
NCI/ADR-RES = tested on: NCI/ADR-RES
UACC-62 = tested on: UACC-62
OVCAR-3 = tested on: OVCAR-3
NCI-H23 = tested on: NCI-H23
Malme-3M = tested on: Malme-3M
OVCAR-8 = tested on: OVCAR-8
HCT-116 = tested on: HCT-116
SF-539 = tested on: SF-539
SNB-19 = tested on: SNB-19
SN12C = tested on: SN12C
K562 = tested on: K562
MDA-N = tested on: MDA-N
PC-3 = tested on: PC-3
ACHN = tested on: ACHN
U-251 = tested on: U-251
HOP-62 = tested on: HOP-62
HT-29 = tested on: HT-29
SF-268 = tested on: SF-268
HOP-92 = tested on: HOP-92
SK-MEL-5 = tested on: SK-MEL-5
SF-295 = tested on: SF-295
RXF 393 = tested on: RXF 393
RPMI-8226 = tested on: RPMI-8226
786-0 = tested on: 786-0
UO-31 = tested on: UO-31
HCT-15 = tested on: HCT-15
OVCAR-5 = tested on: OVCAR-5
MOLT-4 = tested on: MOLT-4
SK-MEL-28 = tested on: SK-MEL-28
T47D = tested on: T47D
A498 = tested on: A498
TK-10 = tested on: TK-10
SK-MEL-2 = tested on: SK-MEL-2
KM12 = tested on: KM12
MDA-MB-231 = tested on: MDA-MB-231
SK-OV-3 = tested on: SK-OV-3
CAKI-1 = tested on: CAKI-1
NCI-H522 = tested on: NCI-H522
MCF7 = tested on: MCF7
SW-620 = tested on: SW-620
SR = tested on: SR
UACC-257 = tested on: UACC-257
SNB-75 = tested on: SNB-75
HL-60 = tested on: HL-60
IGROV-1 = tested on: IGROV-1
EKVX = tested on: EKVX
LOX IMVI = tested on: LOX IMVI
HCC 2998 = tested on: HCC 2998
CCRF-CEM = tested on: CCRF-CEM
NCI-H226 = tested on: NCI-H226

For Cc1cn(C2CC(N(O)C(N)=O)C(CO)O2)c(=O)[nH]c1=O (stereo not drawn), the GI50 (MDA-MB-435) was > 100 µM (inactive), the GI50 (COLO 205) was > 100 µM (inactive) and the GI50 (DU-145) was > 100 µM (inactive). For the same compound, the GI50 (A549) was > 100 µM (inactive), the GI50 (OVCAR-4) was > 100 µM (inactive) and the GI50 (M14) was > 100 µM (inactive). The GI50 (NCI/ADR-RES) was > 100 µM (inactive), the GI50 (UACC-62) was > 100 µM (inactive) and the GI50 (OVCAR-3) was > 100 µM (inactive). The GI50 (NCI-H23) was > 100 µM (inactive), the GI50 (Malme-3M) was > 100 µM (inactive) and the GI50 (OVCAR-8) was > 100 µM (inactive). For the same compound, the GI50 (HCT-116) was > 100 µM (inactive), the GI50 (SF-539) was > 100 µM (inactive) and the GI50 (SNB-19) was > 100 µM (inactive). For the same compound, the GI50 (SN12C) was > 100 µM (inactive), the GI50 (K562) was > 100 µM (inactive) and the GI50 (MDA-N) was > 100 µM (inactive). The GI50 (PC-3) was > 100 µM (inactive), the GI50 (ACHN) was > 100 µM (inactive) and the GI50 (U-251) was > 100 µM (inactive). The GI50 (HOP-62) was > 100 µM (inactive), the GI50 (HT-29) was > 100 µM (inactive) and the GI50 (SF-268) was > 100 µM (inactive). The GI50 (HOP-92) was > 100 µM (inactive), the GI50 (SK-MEL-5) was > 100 µM (inactive) and the GI50 (SF-295) was > 100 µM (inactive). For the same compound, the GI50 (RXF 393) was > 100 µM (inactive), the GI50 (RPMI-8226) was > 100 µM (inactive) and the GI50 (786-0) was > 100 µM (inactive). For the same compound, the GI50 (UO-31) was > 100 µM (inactive), the GI50 (HCT-15) was over 100 µM and the GI50 (OVCAR-5) was > 100 µM (inactive). For the same compound, the GI50 (MOLT-4) was > 100 µM (inactive), the GI50 (SK-MEL-28) was > 100 µM (inactive) and the GI50 (T47D) was > 100 µM (inactive). The GI50 (A498) was > 100 µM (inactive), the GI50 (TK-10) was > 100 µM (inactive) and the GI50 (SK-MEL-2) was > 100 µM (inactive). The GI50 (KM12) was > 100 µM (inactive), the GI50 (MDA-MB-231) was > 100 µM (inactive) and the GI50 (SK-OV-3) was > 100 µM (inactive). For the same compound, the GI50 (CAKI-1) was > 100 µM (inactive), the GI50 (NCI-H522) was > 100 µM (inactive) and the GI50 (MCF7) was > 100 µM (inactive). For the same compound, the GI50 (SW-620) was > 100 µM (inactive).

With O=c1[nH]c(=O)n(COCc2ccccc2)c2ccc([N+](=O)[O-])cc12 the GI50 (MDA-MB-435) was > 100 µM (inactive), the GI50 (COLO 205) was > 100 µM (inactive) and the GI50 (DU-145) was > 100 µM (inactive). For the same compound, the GI50 (A549) was > 100 µM (inactive), the GI50 (SR) was > 100 µM (inactive) and the GI50 (OVCAR-4) was 56.5 µM (inactive). The GI50 (M14) was > 100 µM (inactive), the GI50 (NCI/ADR-RES) was 4.85 µM (inactive) and the GI50 (UACC-62) was > 100 µM (inactive). For the same compound, the GI50 (OVCAR-3) was > 100 µM (inactive), the GI50 (UACC-257) was > 100 µM (inactive) and the GI50 (SNB-75) was > 100 µM (inactive). For the same compound, the GI50 (OVCAR-8) was 35.2 µM (inactive), the GI50 (HCT-116) was > 100 µM (inactive) and the GI50 (SF-539) was > 100 µM (inactive). The GI50 (HL-60) was > 100 µM (inactive), the GI50 (IGROV-1) was > 100 µM (inactive) and the GI50 (EKVX) was > 100 µM (inactive). The GI50 (LOX IMVI) was > 100 µM (inactive), the GI50 (SN12C) was > 100 µM (inactive) and the GI50 (K562) was > 100 µM (inactive). The GI50 (MDA-N) was > 100 µM (inactive), the GI50 (PC-3) was > 100 µM (inactive) and the GI50 (ACHN) was 25.6 µM (inactive). For the same compound, the GI50 (U-251) was > 100 µM (inactive), the GI50 (HT-29) was > 100 µM (inactive) and the GI50 (HOP-92) was > 100 µM (inactive). The GI50 (SK-MEL-5) was > 100 µM (inactive), the GI50 (SF-295) was > 100 µM (inactive) and the GI50 (RXF 393) was > 100 µM (inactive). The GI50 (786-0) was 80 µM (inactive), the GI50 (UO-31) was > 100 µM (inactive) and the GI50 (HCT-15) was over 100 µM. For the same compound, the GI50 (OVCAR-5) was > 100 µM (inactive), the GI50 (HCC 2998) was > 100 µM (inactive) and the GI50 (CCRF-CEM) was > 100 µM (inactive). For the same compound, the GI50 (MOLT-4) was > 100 µM (inactive), the GI50 (NCI-H226) was > 100 µM (inactive) and the GI50 (SK-MEL-28) was > 100 µM (inactive). For the same compound, the GI50 (A498) was > 100 µM (inactive), the GI50 (TK-10) was > 100 µM (inactive) and the GI50 (SK-MEL-2) was > 100 µM (inactive). The GI50 (KM12) was > 100 µM (inactive), the GI50 (MDA-MB-231) was > 100 µM (inactive) and the GI50 (SK-OV-3) was > 100 µM (inactive). The GI50 (CAKI-1) was > 100 µM (inactive), the GI50 (MCF7) was > 100 µM (inactive) and the GI50 (SW-620) was > 100 µM (inactive).

In the case of NCc1ccc(-c2ccc(-c3ccc(-c4ccc(CN)s4)s3)s2)s1, the GI50 (MDA-MB-435) is reported as > 100 µM (inactive), the GI50 (COLO 205) is reported as > 100 µM (inactive) and the GI50 (DU-145) is reported as > 100 µM (inactive). For the same compound, the GI50 (A549) was > 100 µM (inactive), the GI50 (OVCAR-4) was > 100 µM (inactive) and the GI50 (M14) was > 100 µM (inactive). For the same compound, the GI50 (NCI/ADR-RES) was > 100 µM (inactive), the GI50 (UACC-62) was > 100 µM (inactive) and the GI50 (OVCAR-3) was > 100 µM (inactive). The GI50 (UACC-257) was > 100 µM (inactive), the GI50 (NCI-H23) was > 100 µM (inactive) and the GI50 (Malme-3M) was > 100 µM (inactive). The GI50 (SNB-75) was > 100 µM (inactive), the GI50 (OVCAR-8) was > 100 µM (inactive) and the GI50 (HCT-116) was > 100 µM (inactive). For the same compound, the GI50 (SF-539) was > 100 µM (inactive), the GI50 (SNB-19) was > 100 µM (inactive) and the GI50 (HL-60) was > 100 µM (inactive). For the same compound, the GI50 (IGROV-1) was > 100 µM (inactive), the GI50 (EKVX) was > 100 µM (inactive) and the GI50 (LOX IMVI) was > 100 µM (inactive). The GI50 (SN12C) was > 100 µM (inactive), the GI50 (K562) was > 100 µM (inactive) and the GI50 (MDA-N) was > 100 µM (inactive). For the same compound, the GI50 (PC-3) was > 100 µM (inactive), the GI50 (ACHN) was > 100 µM (inactive) and the GI50 (U-251) was > 100 µM (inactive). For the same compound, the GI50 (HOP-62) was > 100 µM (inactive), the GI50 (HT-29) was > 100 µM (inactive) and the GI50 (HOP-92) was > 100 µM (inactive). For the same compound, the GI50 (SK-MEL-5) was > 100 µM (inactive), the GI50 (SF-295) was > 100 µM (inactive) and the GI50 (RXF 393) was > 100 µM (inactive). The GI50 (RPMI-8226) was > 100 µM (inactive), the GI50 (786-0) was > 100 µM (inactive) and the GI50 (UO-31) was > 100 µM (inactive). The GI50 (HCT-15) was over 100 µM, the GI50 (OVCAR-5) was > 100 µM (inactive) and the GI50 (HCC 2998) was > 100 µM (inactive). For the same compound, the GI50 (CCRF-CEM) was > 100 µM (inactive), the GI50 (MOLT-4) was > 100 µM (inactive) and the GI50 (NCI-H226) was > 100 µM (inactive). For the same compound, the GI50 (SK-MEL-28) was > 100 µM (inactive), the GI50 (T47D) was > 100 µM (inactive) and the GI50 (A498) was > 100 µM (inactive). The GI50 (TK-10) was > 100 µM (inactive), the GI50 (SK-MEL-2) was > 100 µM (inactive) and the GI50 (KM12) was > 100 µM (inactive). For the same compound, the GI50 (MDA-MB-231) was > 100 µM (inactive), the GI50 (SK-OV-3) was > 100 µM (inactive) and the GI50 (CAKI-1) was > 100 µM (inactive). For the same compound, the GI50 (NCI-H522) was > 100 µM (inactive), the GI50 (MCF7) was > 100 µM (inactive) and the GI50 (SW-620) was > 100 µM (inactive).
